# Measured values taken from BigSolDB 2.1.
compound,measurement,setting,value
Cc1c(-c2ccccc2)oc2c(C(=O)O)cccc2c1=O,solubility (mole fraction),"in DMF, 278.15 K",0.0129
same,solubility (mole fraction),"in DMF, 283.15 K",0.0165
same,solubility (mole fraction),"in DMF, 288.15 K",0.0213
same,solubility (mole fraction),"in DMF, 293.15 K",0.0259
same,solubility (mole fraction),"in DMF, 298.15 K",0.0321
same,solubility (mole fraction),"in DMF, 303.15 K",0.0399
same,solubility (mole fraction),"in DMF, 308.15 K",0.0485
same,solubility (mole fraction),"in DMF, 313.15 K",0.0587
same,solubility (mole fraction),"in DMF, 318.15 K",0.072
same,solubility (mole fraction),"in DMF, 323.15 K",0.0889
same,solubility (mole fraction),"in THF, 278.15 K",0.013
same,solubility (mole fraction),"in THF, 283.15 K",0.0154
same,solubility (mole fraction),"in THF, 288.15 K",0.0183
same,solubility (mole fraction),"in THF, 293.15 K",0.0217
same,solubility (mole fraction),"in THF, 298.15 K",0.0261
same,solubility (mole fraction),"in THF, 303.15 K",0.0313
same,solubility (mole fraction),"in THF, 308.15 K",0.0371
same,solubility (mole fraction),"in THF, 313.15 K",0.0443
same,solubility (mole fraction),"in THF, 318.15 K",0.0517
same,solubility (mole fraction),"in THF, 323.15 K",0.061
same,solubility (mole fraction),"in acetone, 278.15 K",0.0019
same,solubility (mole fraction),"in acetone, 283.15 K",0.00219
same,solubility (mole fraction),"in acetone, 288.15 K",0.00259
same,solubility (mole fraction),"in acetone, 293.15 K",0.00301
same,solubility (mole fraction),"in acetone, 298.15 K",0.0034
same,solubility (mole fraction),"in acetone, 303.15 K",0.00381
same,solubility (mole fraction),"in acetone, 308.15 K",0.00438
same,solubility (mole fraction),"in acetone, 313.15 K",0.00489
same,solubility (mole fraction),"in acetone, 318.15 K",0.00546
same,solubility (mole fraction),"in acetone, 323.15 K",0.00617
same,solubility (mole fraction),"in acetonitrile, 278.15 K",0.000211
same,solubility (mole fraction),"in acetonitrile, 283.15 K",0.000247
same,solubility (mole fraction),"in acetonitrile, 288.15 K",0.00031
same,solubility (mole fraction),"in acetonitrile, 293.15 K",0.00037
same,solubility (mole fraction),"in acetonitrile, 298.15 K",0.000458
same,solubility (mole fraction),"in acetonitrile, 303.15 K",0.000542
same,solubility (mole fraction),"in acetonitrile, 308.15 K",0.000641
same,solubility (mole fraction),"in acetonitrile, 313.15 K",0.000768
same,solubility (mole fraction),"in acetonitrile, 318.15 K",0.000893
same,solubility (mole fraction),"in acetonitrile, 323.15 K",0.00103
same,solubility (mole fraction),"in ethanol, 278.15 K",0.00108
same,solubility (mole fraction),"in ethanol, 283.15 K",0.00128
same,solubility (mole fraction),"in ethanol, 288.15 K",0.00153
same,solubility (mole fraction),"in ethanol, 293.15 K",0.00181
same,solubility (mole fraction),"in ethanol, 298.15 K",0.00216
same,solubility (mole fraction),"in ethanol, 303.15 K",0.00258
same,solubility (mole fraction),"in ethanol, 308.15 K",0.00304
same,solubility (mole fraction),"in ethanol, 313.15 K",0.00363
same,solubility (mole fraction),"in ethanol, 318.15 K",0.00431
same,solubility (mole fraction),"in ethanol, 323.15 K",0.00512
same,solubility (mole fraction),"in ethyl acetate, 278.15 K",0.00088
same,solubility (mole fraction),"in ethyl acetate, 283.15 K",0.00114
same,solubility (mole fraction),"in ethyl acetate, 288.15 K",0.00141
same,solubility (mole fraction),"in ethyl acetate, 293.15 K",0.00178
same,solubility (mole fraction),"in ethyl acetate, 298.15 K",0.00221
same,solubility (mole fraction),"in ethyl acetate, 303.15 K",0.00272
same,solubility (mole fraction),"in ethyl acetate, 308.15 K",0.00341
same,solubility (mole fraction),"in ethyl acetate, 313.15 K",0.00416
same,solubility (mole fraction),"in ethyl acetate, 318.15 K",0.00494
same,solubility (mole fraction),"in ethyl acetate, 323.15 K",0.00594
same,solubility (mole fraction),"in isobutanol, 278.15 K",0.000942
same,solubility (mole fraction),"in isobutanol, 283.15 K",0.00118
same,solubility (mole fraction),"in isobutanol, 288.15 K",0.00143
same,solubility (mole fraction),"in isobutanol, 293.15 K",0.00175
same,solubility (mole fraction),"in isobutanol, 298.15 K",0.00214
same,solubility (mole fraction),"in isobutanol, 303.15 K",0.00261
same,solubility (mole fraction),"in isobutanol, 308.15 K",0.00313
same,solubility (mole fraction),"in isobutanol, 313.15 K",0.00376
same,solubility (mole fraction),"in isobutanol, 318.15 K",0.00458
same,solubility (mole fraction),"in isobutanol, 323.15 K",0.0056
same,solubility (mole fraction),"in methanol, 278.15 K",0.000344
same,solubility (mole fraction),"in methanol, 283.15 K",0.000449
same,solubility (mole fraction),"in methanol, 288.15 K",0.000587
same,solubility (mole fraction),"in methanol, 293.15 K",0.000767
same,solubility (mole fraction),"in methanol, 298.15 K",0.00102
same,solubility (mole fraction),"in methanol, 303.15 K",0.00136
same,solubility (mole fraction),"in methanol, 308.15 K",0.00181
same,solubility (mole fraction),"in methanol, 313.15 K",0.00242
same,solubility (mole fraction),"in methanol, 318.15 K",0.00316
same,solubility (mole fraction),"in methanol, 323.15 K",0.00419
same,solubility (mole fraction),"in methyl acetate, 278.15 K",0.000929
same,solubility (mole fraction),"in methyl acetate, 283.15 K",0.00112
same,solubility (mole fraction),"in methyl acetate, 288.15 K",0.00145
same,solubility (mole fraction),"in methyl acetate, 293.15 K",0.0019
same,solubility (mole fraction),"in methyl acetate, 298.15 K",0.00245
same,solubility (mole fraction),"in methyl acetate, 303.15 K",0.00302
same,solubility (mole fraction),"in methyl acetate, 308.15 K",0.00382
same,solubility (mole fraction),"in methyl acetate, 313.15 K",0.00473
same,solubility (mole fraction),"in methyl acetate, 318.15 K",0.0057
same,solubility (mole fraction),"in methyl acetate, 323.15 K",0.00673
same,solubility (mole fraction),"in n-butyl acetate, 278.15 K",0.000947
same,solubility (mole fraction),"in n-butyl acetate, 283.15 K",0.0011
same,solubility (mole fraction),"in n-butyl acetate, 288.15 K",0.00125
same,solubility (mole fraction),"in n-butyl acetate, 293.15 K",0.00141
same,solubility (mole fraction),"in n-butyl acetate, 298.15 K",0.00158
same,solubility (mole fraction),"in n-butyl acetate, 303.15 K",0.00178
same,solubility (mole fraction),"in n-butyl acetate, 308.15 K",0.00197
same,solubility (mole fraction),"in n-butyl acetate, 313.15 K",0.00221
same,solubility (mole fraction),"in n-butyl acetate, 318.15 K",0.00242
same,solubility (mole fraction),"in n-butyl acetate, 323.15 K",0.00268
